Where a name gives a salt, the structure may show the parent alone.
Experiments:
Format in all cases: cell-based
[1] = molecular target: T1, human EDG8 (S1PR5) receptor (Homo sapiens, UniProt Q9H228); experiment: Aequorin assay, agonist potency, CHO-A21-EDG8#12 cells; settings: agonist mode, aequorin luminescence; read-out: S1P5 EC50 range #
T1 construct: carries the transgenes human EDG8 (S1PR5) receptor (Acession number NP_110387.1); expressed in transfected cells; host or cells: CHO-A21-EDG8#12 (CHO clone co-expressing mitochondrial aequorin and chimaeric Gaqi5)
T1 sequence (Q9H228 whole entry): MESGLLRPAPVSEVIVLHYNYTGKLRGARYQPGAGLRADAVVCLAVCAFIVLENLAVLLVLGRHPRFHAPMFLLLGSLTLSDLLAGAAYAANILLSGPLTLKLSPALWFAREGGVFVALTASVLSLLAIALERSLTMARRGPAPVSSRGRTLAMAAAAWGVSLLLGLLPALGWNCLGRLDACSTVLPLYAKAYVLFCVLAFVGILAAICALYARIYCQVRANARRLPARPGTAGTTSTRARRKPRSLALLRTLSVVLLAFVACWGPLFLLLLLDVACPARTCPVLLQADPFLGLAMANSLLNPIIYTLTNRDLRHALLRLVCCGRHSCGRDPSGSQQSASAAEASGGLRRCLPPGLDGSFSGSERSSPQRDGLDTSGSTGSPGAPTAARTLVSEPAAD
Procedure, shortened: (§1)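 CHO cells coexpressing receptor, mitochondrial aequorin and Gαqi5 (S1P3 pool: GNA16) were loaded overnight at RT with 5 μM coelenterazine h in 0.1% fatty-acid-free BSA buffer. Cells were injected onto compound, luminescence recorded 90 s and integrated, normalised to digitonin or 20 μM ATP; sigmoidal fit.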

[2] = molecular target: T2, human EDG1 (S1PR1) receptor (Homo sapiens, UniProt P21453); experiment: Aequorin assay, agonist potency, CHO-A21-Edg1#17 cells; settings: agonist mode, aequorin luminescence; read-out: S1P1 EC50
T2 construct: expressed in transfected cells; host or cells: CHO-A21-Edg1#17 (CHO clone co-expressing mitochondrial aequorin and chimaeric Gaqi5)
T2 sequence (P21453 whole entry): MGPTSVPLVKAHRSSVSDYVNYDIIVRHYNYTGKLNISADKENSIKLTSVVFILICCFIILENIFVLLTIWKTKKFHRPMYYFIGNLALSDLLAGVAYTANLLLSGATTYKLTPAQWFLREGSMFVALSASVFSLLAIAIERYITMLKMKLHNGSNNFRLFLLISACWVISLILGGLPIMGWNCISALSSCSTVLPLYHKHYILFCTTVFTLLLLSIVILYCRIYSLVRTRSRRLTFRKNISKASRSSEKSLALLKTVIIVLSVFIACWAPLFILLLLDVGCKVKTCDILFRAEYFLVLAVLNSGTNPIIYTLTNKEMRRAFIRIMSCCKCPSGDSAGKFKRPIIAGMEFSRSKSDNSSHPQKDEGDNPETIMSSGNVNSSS
Procedure, shortened: as §1

[3] = molecular target: T3, human EDG3 (S1PR3) receptor (Homo sapiens, UniProt Q99500); experiment: Aequorin assay, agonist potency, CHO-A2-S1P3 Mix cells; settings: agonist mode, aequorin luminescence
T3 construct: expressed in transfected cells; host or cells: CHO-A2-S1P3 Mix (CHO cell pool co-expressing mitochondrial aequorin and GNA16)
T3 sequence (Q99500 whole entry): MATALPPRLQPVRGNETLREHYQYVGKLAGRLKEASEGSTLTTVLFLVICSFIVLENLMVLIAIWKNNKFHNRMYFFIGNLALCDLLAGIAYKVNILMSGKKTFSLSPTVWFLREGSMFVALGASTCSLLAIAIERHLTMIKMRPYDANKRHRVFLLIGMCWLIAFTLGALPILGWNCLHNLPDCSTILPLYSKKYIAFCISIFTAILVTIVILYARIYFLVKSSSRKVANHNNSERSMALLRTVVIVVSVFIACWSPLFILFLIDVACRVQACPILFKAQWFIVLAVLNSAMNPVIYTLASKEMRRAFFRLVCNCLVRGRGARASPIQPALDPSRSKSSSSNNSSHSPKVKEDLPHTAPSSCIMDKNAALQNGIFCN
Method: Agonistic activity was measured as described below.
Cell clone CHO-A21-Edg1#17 carries the transgenes human EDG1 (S1PR1) receptor (Accession number NP_001391.2), mitochondrially targeted Aequorin (active part corresponds to accession number 1SL8_A) and chimaeric Gaqi5=Gaq modified with the 5 C-terminal amino-acids replaced with those of the Gai protein (DCGLF). CHO-A2-S1P3 Mix is a cell pool ectopically expressing human EDG3 (S1PR3) receptor (Accession number NP_005217.2) mitochondrially targeted Aequorin (active part has a sequence similar to accession number AY601106.1) and GNA16 (Accession number NP_002059.3). Cell clone CHO-A21-EDG8#12 carries the transgenes human EDG8 (S1PR5) receptor (Acession number NP_110387.1), mitochondrially expressed Aequorin (active part corresponds to accession number 1SL8_A) and chimaeric Gaqi5 (Gaq modified to present the 5 last amino-acids of the Gai protein “DCGLF”; see above). Cells are grown to mid-log phase in culture medium (HAM's F12, 10% FBS, 100 IU/mL penicillin, 100 μg/mL streptomycin, 250 μg/mL Zeocin, 400 μg/mL G418). 18 hours prior to frozen cells preparation, the medium is changed to remove the antibiotics.
18 hours prior to the test, vials of frozen cells are quickly thawed in a 37° C. water bath, cells are recovered by centrifugation and resuspended in assay buffer (DMEM/HAM's F12 with HEPES, without phenol red+0.1% fatty acid-free BSA). Cells are gently agitated in suspension overnight at RT in presence of 5 μM of Coelenterazine h (Molecular Probes). On the day of the test, cells are diluted to their final working concentrations in assay buffer and agitated in suspension for 1 h at RT. Cells are then placed in the luminescence reader (Hamamatsu Functional Drug Screening System 6000, FDSS6000). During cells incubation, compounds are prepared in 100% DMSO, and subsequently diluted in assay buffer. Compounds are then dispensed in the assay plate (black, clear-bottom, 384-well plate). After binding of agonists to the human S1P receptor the intracellular calcium concentration increases and binding of calcium to the Aequorin/Coelenterazine complex leads to an oxidation reaction of coelenterazine, which results in the production of Aequorin, coelenteramide, CO2 and light (Dmax 469 nm). The luminescent response is dependent on the agonist concentration. For agonist testing, 30 μL of cell suspension are injected on 30 μL of test compound or reference agonist in the assay plate. The resulting emission of light is recorded for 90 seconds using the FDSS6000. Dose response curves with the reference compounds are performed before testing the compounds. S1P is the reference agonist and JTE-013 the reference antagonist for S1P2.
Luminescence data are integrated over the reading interval for agonist and antagonist modes. To standardize the emission of recorded light (determination of the “100% signal”) across plates and across different experiments, some of the wells contain 100 μM digitonin or a saturating concentration of ATP (20 μM). Plates also contain the reference agonist at a concentration equivalent to the EC80 obtained during the test validation and the EC100. Dose-response data from test compounds were analyzed with XLfit (IDBS) software using nonlinear regression applied to a sigmoidal dose-response model and the following equation: […]

S1P4 = molecular target: T4, S1P4 (Homo sapiens, UniProt O95977); experiment: Aequorin assay, agonist potency, S1P4; settings: agonist mode, aequorin luminescence
T4 sequence (O95977 1-384): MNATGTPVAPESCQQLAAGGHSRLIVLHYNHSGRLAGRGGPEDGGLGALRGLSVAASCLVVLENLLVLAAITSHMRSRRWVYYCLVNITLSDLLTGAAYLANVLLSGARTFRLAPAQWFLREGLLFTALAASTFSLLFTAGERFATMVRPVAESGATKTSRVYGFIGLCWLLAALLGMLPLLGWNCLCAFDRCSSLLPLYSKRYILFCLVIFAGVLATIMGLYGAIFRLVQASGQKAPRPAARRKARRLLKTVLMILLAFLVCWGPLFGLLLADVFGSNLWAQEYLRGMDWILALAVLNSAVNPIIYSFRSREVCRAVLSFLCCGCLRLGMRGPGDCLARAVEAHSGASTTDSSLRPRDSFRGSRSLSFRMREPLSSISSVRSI
Procedure, shortened: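 Cells loaded overnight at RT with 5 μM coelenterazine h in DMEM/HAM's F12 with HEPES plus 0.1% fatty acid-free BSA, then injected onto compounds; agonist-induced calcium luminescence recorded for 90 s and integrated. Signal normalised to digitonin (100 μM) or ATP (20 μM) wells, S1P as reference agonist; sigmoidal nonlinear regression.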

EC50 [1] | EC50 [2] | EC50 [3] | EC50 (S1P4) | SMILES
≤ 10 nM | > 1000 nM | > 1000 nM | < 1000 nM | O=C(O)CN1CCC2(CC1)Cc1ccc(OCc3c(Cl)cccc3Cl)cc1C2 [Example 160, 2-(5-((2,6-dichlorobenzyl)oxy)-1,3-dihydrospiro[indene-2,4′-piperidin]-1′-yl)acetic acid]
≤ 10 nM | > 1000 nM | > 1000 nM | < 1000 nM | CCc1cccc(Cl)c1COc1ccc2c(c1)CC1(CCN(CC(=O)O)CC1)C2 [Example 161, 2-(5-((2-chloro-6-ethylbenzyl)oxy)-1,3-dihydrospiro[indene-2,4′-piperidin]-1′-yl)acetic acid hydrochloride]

From US20200055817A1 (AbbVie Deutschland GmbH & Co. KG, priority 2016, published 2020)
